Measured values: patent publication US20130011347A1, “Personal Care Compositions With Improved Solubility of a Solid Cosmetic Active” (priority 2011, published 2013)

Assays:
[1] = Solvency of solvents for (S)-Equol (visual solubility after storage); settings: solute (S)-Equol, 6% test solution, approximately 1:16 solute to solvent ratio, soluble = no visible crystals
Procedure: (§1) In the testing provided below, “soluble” (or “solubilize”), in relation to the solubility of a solid solute being tested, means that no visible crystals may be seen after a prescribed storage period at a storage condition. The storage period can vary. Suitable storage periods include about 24 hours, about 1 week, and about 30 days. Suitable storage conditions include ambient conditions or cold storage at 5° C. (approximately 1 atm). In certain embodiments, solubility may be determined after a 24 hour storage period at ambient conditions. In other embodiments, solubility may be determined after 20 days in cold storage. Other testing parameters may include storage for prolonged time periods (e.g., 30 day, 50 days, 60 days, 90 days) and at variable temperatures (e.g., 5° C., 50° C.).
The solvency of an isosorbide diester within the scope of the present invention was tested against two conventional, industry standard solvents. […] A test solution was of 6% Equol is prepared with heating to 70° C. Upon reaching 70° C., the examples may be mixed for about 10 minutes. Place mixtures in a covered vial and cool to the storage temperature. Solubility is evaluated for samples stored 24 hours at ambient conditions. Solubility is also evaluated for samples stored for 7 day at 5° C. followed by equilibration to ambient conditions.

[2] = Solvency of solvents for hexylresorcinol (visual solubility after storage); settings: solute hexylresorcinol, 33.5% test solution, approximately 1:2 solute to solvent ratio, soluble = no visible crystals
Procedure: as §1
The solvency of an isosorbide diester within the scope of the present invention was tested against two conventional, industry standard solvents. […] A test solution of 33.5% hexylresorcinol is prepared with heating to 70° C. Upon reaching 70° C., the examples may be mixed for about 10 minutes. Place mixtures in a covered vial and cool to the storage temperature. Solubility is evaluated for samples stored 24 hours at ambient conditions. Solubility is also evaluated for samples stored for 7 day at 5° C. followed by equilibration to ambient conditions.

[3] = Solvency of solvents for tetrahydrocurcuminoids (THC) (visual solubility after storage); settings: solute tetrahydrocurcuminoids (THC), 3% test solution, approximately 1:32 solute to solvent ratio, soluble = no visible crystals
[4] = then equilibration to ambient conditions

CCCCCCCCCCCC(=O)N(C)CC(=O)OC(C)C [Isopropyl lauroyl sarcosinate, isopropyl lauroyl sarcosinate]
Soluble: Solubility, 24 hour rest at Ambient Conditions ([1]; prepared at 70° C.) | Solubility, 7 day storage at 5° C. [1, 4] | Solubility, 24 hour rest at Ambient Conditions ([2]; prepared at 70° C.) | Solubility, 7 day storage at 5° C. [2, 4] | Solubility, 24 hour rest at Ambient Conditions ([3]; prepared at 70° C.) | Solubility, 7 day storage at 5° C. [3, 4]
